Drawing on patent US7902237B2, “Heterocyclic compounds as pharmaceutical agents” (Exelixis, Inc., priority 2004, dated 2011), this text covers EC50, Emax and IC50 for eleven compounds.

Assay [1] addresses T1, full length human farnesoid X receptor (Homo sapiens, UniProt Q96RI1).
T1 construct: CMX-farnesoid X receptor (full length human farnesoid X receptor); expressed in transfected cells; host or cells: CV-1 African Green Monkey Kidney cells
T1 sequence (Q96RI1 1-472 isoform Q96RI1-2): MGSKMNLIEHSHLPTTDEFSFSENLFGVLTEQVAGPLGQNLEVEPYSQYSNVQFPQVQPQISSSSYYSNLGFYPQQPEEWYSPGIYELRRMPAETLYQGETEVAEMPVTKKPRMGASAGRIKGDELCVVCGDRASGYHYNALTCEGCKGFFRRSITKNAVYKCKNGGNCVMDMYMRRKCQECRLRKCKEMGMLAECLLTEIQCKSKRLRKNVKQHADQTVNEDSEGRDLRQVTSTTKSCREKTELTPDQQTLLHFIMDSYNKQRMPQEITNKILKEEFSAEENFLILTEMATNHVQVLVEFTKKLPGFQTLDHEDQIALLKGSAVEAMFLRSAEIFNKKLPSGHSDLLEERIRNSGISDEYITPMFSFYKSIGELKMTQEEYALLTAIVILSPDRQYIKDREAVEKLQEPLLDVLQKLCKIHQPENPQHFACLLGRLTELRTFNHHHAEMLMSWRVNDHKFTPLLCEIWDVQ
T1 sequence (P19793 1-462 partner): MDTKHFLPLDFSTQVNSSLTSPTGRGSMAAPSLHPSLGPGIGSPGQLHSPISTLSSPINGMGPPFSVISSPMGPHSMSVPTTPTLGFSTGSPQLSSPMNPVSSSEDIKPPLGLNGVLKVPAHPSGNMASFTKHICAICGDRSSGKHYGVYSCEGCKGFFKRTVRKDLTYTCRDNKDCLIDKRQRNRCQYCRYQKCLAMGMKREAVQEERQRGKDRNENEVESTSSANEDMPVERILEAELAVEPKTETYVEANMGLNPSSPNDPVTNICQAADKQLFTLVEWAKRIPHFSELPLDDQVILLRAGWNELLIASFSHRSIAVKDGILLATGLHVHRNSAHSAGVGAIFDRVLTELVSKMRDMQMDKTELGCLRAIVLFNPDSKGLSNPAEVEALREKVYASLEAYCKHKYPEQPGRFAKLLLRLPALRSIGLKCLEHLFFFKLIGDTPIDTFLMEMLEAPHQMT
In words: farnesoid X receptor/ECREx7 co-transfection assay. Type of assay: cell-based. Particulars: for EC50: CV-1 cells; for Emax: agonist efficacy relative to chenodeoxycholic acid (CDCA) maximum response. The procedure: (§1) The basic co-transfection protocol for measuring the farnesoid X receptor activity is as follows. CV-1 African Green Monkey Kidney cells were plated 24 hours before transfection to achieve approximately 70-80 percent confluency. Cells were transfected with the following expression vectors, CMX-farnesoid X receptor (full length human farnesoid X receptor), CMX-7RXRα (full length human RXR), Luc12 (ECREx7-Tk-Luciferase) luciferase reporter gene construct. (See WO 00/76523, Venkateswaran et al., (2000) J. Biol. Chem. 275 14700-14707). A CMX-β-Galactosidase expression vector was used as a transfection control. The transfection reagent used was DOTAP (Boehringer Mannheim). Cells were incubated with the DOTAP/DNA mixture for 5 hours after which the cells were harvested and plated onto either 96 well or 384 well plates containing the appropriate concentration of test compound. The assay was allowed to continue for an additional 18-20 hours, after which the cells were lysed, with lysis buffer (1% triton X 100, 10% glycerol, 5 mM Dithiothreitol, 1 mM EGTA, 25 mM Tricine, pH 7.8) and the luciferase activity measured in the presence of Luciferase assay buffer (0.73 mM ATP, 22.3 mM Tricine, 0.11 mM EGTA, 0.55 mM Luciferin, 0.15 mM Coenzyme A, 0.5 mM HEPES, 10 mM Magnesium sulphate) on a standard luminomter plate reader (PE Biosystems, NorthStar Reader), using recommended operating instructions and conditions
(§2) Both the farnesoid X receptor/ECREx7 co-transfection assay (Example 9) and the TR-FRET assay (Example 8) can be used to establish the EC50/IC50 values for potency and percent activity or inhibition for efficacy. Efficacy defines the activity of a compound relative to a high control (chenodeoxycholic acid, CDCA) or a low control (DMSO/vehicle). The dose response curves are generated from an 8 point curve with concentrations differing by ½ LOG units. Each point represents the average of 4 wells of data from a 384 well plate. The curve for the data is generated by using the equation: Y=Bottom+(Top−Bottom)/(1+10^((Log EC50−X)*HillSlope))
The EC50/IC50 is therefore defined as the concentration at which an agonist or antagonist elicits a response that is half way between the Top (maximum) and Bottom (baseline) values. The EC50/IC50 values represented are the averages of at least 3 independent experiments. The determination of the relative efficacy or % control for an agonist is by comparison to the maximum response achieved by chenodeoxycholic acid that is measured individually in each dose response experiment. […]

The target in the next assay is T2, farnesoid X receptor (Homo sapiens, UniProt Q96RI1).
T2 sequence (Q96RI1 258-485): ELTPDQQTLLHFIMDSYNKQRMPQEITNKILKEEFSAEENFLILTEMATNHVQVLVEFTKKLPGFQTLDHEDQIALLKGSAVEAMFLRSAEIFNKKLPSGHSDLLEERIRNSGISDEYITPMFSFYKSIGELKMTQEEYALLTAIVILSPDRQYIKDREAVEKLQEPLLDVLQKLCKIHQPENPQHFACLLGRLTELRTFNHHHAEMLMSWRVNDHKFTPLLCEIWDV
Kind of assay: one or more of the in vitro assays described herein (TR-FRET assay and/or co-transfection assay). The following applies: for Emax: agonist efficacy relative to CDCA, read-out: efficacy (first value, goes with EC50); for IC50: antagonist mode against CDCA, read-out: IC50 (apparent partial agonist activity); for EC50: read-out: EC50 (apparent partial agonist activity). The procedure:
The TR-FRET assay was performed by incubating 8 nM of GST-farnesoid X receptor-LBD (comprising […] fused in frame to the farnesoid X receptor ligand binding domain, (amino acids 244-471 of the human farnesoid X receptor)), 8 nM of Europium-labeled anti-GST antibody (Wallac/PE Life Sciences Cat#AD0064), 16 nM biotin-SRC-1 peptide [5′-biotin-[…]-CONH2], 20 nM APC-SA [allophycocyanin conjugated streptavidin] (Wallac/PE Life Sciences, Cat# AD0059A) in FRET assay buffer (20 mM KH2PO4/K2HPO4 (pH 7.3), 150 mM NaCl, 2 mM CHAPS, 2 mM EDTA, 1 mM DTT) in the presence of the test compound(s) for 2-4 hours at room temperature in a 384 well assay plate. Data was collected using an LJL Analyst using the standard operating instructions and conditions with readings at emission wavelengths of 615 nm and 665 nm after a delay of 65 μs and an excitation wavelength of 330 nm.
as §1, §2
The EC50/IC50 is therefore defined as the concentration at which an agonist or antagonist elicits a response that is half way between the Top (maximum) and Bottom (baseline) values. The EC50/IC50 values represented are the averages of at least 3 independent experiments. The determination of the relative efficacy or % control for an agonist is by comparison to the maximum response achieved by chenodeoxycholic acid that is measured individually in each dose response experiment.
For the antagonist assay, CDCA is added to each well of a 384 well plate to elicit a response. The % inhibition for each antagonist is therefore a measurement of the inhibition of the activity of CDCA. In this example, 100% inhibition would indicate that the activity of CDCA has been reduced to baseline levels, defined as the activity of the assay in the presence of DMSO only.

Setting [2] is: read-out: agonist activity EC50.

Molecules are shown by their SMILES. Like-named read-outs stand apart in the source and are kept apart here.

As for `CCNc1ccc(C(C)=O)cc1/N=C1\S/C(=C\N(C)c2ccccc2)C(=O)N1Cc1ccccc1` [No. 2, (2Z,5Z)-2-{[5-acetyl-2-(ethylamino)phenyl]imino}-5-{[methyl(phenyl)amino]methylidene)-3-(phenylmethyl)-1,3-thiazolidin-4-one], the EC50 in assay [1] (setting [2]) was at most 1000 nM. Besides, the Emax in assay [1] is 50 to 100%.

For `CCNc1ccc(C(C)=O)cc1/N=C1\S/C(=C\N(C)Cc2ccccc2)C(=O)N1Cc1ccccc1` [No. 4, (2Z,5Z)-2-{[5-acetyl-2-(ethylamino)phenyl]imino}-5-{[methyl(phenylmethyl)amino]methylidene}-3-(phenylmethyl)-1,3-thiazolidin-4-one], the Emax on farnesoid X receptor is 40 to 50%; in assay [1] it was 50 to 100%. Further, on farnesoid X receptor, the IC50 was in the range of 300 to 500 nM. The EC50 is about 1000 nM on farnesoid X receptor and at most 1000 nM in assay [1] (setting [2]).

Regarding `CCNc1ccc(C#N)cc1/N=C1\S/C(=C\N2CCc3ccccc32)C(=O)N1Cc1ccccc1` [No. 5, 3-{[(2Z,5Z)-5-(2,3-dihydro-1H-indol-1-ylmethylidene)-4-oxo-3-(phenylmethyl)-1,3-thiazolidin-2-ylidene]amino}-4-(ethylamino)benzonitrile], the EC50 in assay [1] (read-out: agonist activity) is under 200 nM. Also, the Emax in assay [1] is at least 100%.

Take `CCNc1ccc(C(C)=O)cc1/N=C1\S/C(=C\N2CCc3ccccc32)C(=O)N1Cc1ccccc1` [No. 6, (2Z,5Z)-2-{[5-acetyl-2-(ethylamino)phenyl]imino}-5-(2,3-dihydro-1H-indol-1-ylmethylidene)-3-(phenylmethyl)-1,3-thiazolidin-4-one]: in assay [1] (read-out: agonist activity), the EC50 was under 100 nM. Besides, the Emax in assay [1] is over 100%.

For `CC(=O)c1cccc(/N=C2\S/C(=C\N3CCc4ccccc43)C(=O)N2Cc2ccco2)c1` [No. 7, (2Z,5Z)-2-[(3-acetylphenyl)imino]-5-(2,3-dihydro-1H-indol-1-ylmethylidene)-3-(furan-2-ylmethyl)-1,3-thiazolidin-4-one], in assay [1] (setting [2]), the EC50 is at most 1000 nM. Besides, the Emax in assay [1] was in the range of 50 to 100%.

Turning to `CC(=O)Nc1ccc(/N=C2\S/C(=C\N3CCc4ccccc43)C(=O)N2Cc2ccco2)cc1` [No. 8, N-(4-{[(2Z,5Z)-5-(2,3-dihydro-1H-indol-1-ylmethylidene)-3-(furan-2-ylmethyl)-4-oxo-1,3-thiazolidin-2-ylidene]amino}phenyl)acetamide], in assay [1] (setting [2]), the EC50 was at most 1000 nM. The Emax in assay [1] was 50 to 100%.

In the case of `CCNc1ccc(C#N)cc1/N=C1\S/C(=C\N(C)c2ccc(OC)cc2)C(=O)N1Cc1ccccc1` [No. 12, 4-(ethylamino)-3-{[(2Z,5Z)-5-({methyl[4-(methyloxy)phenyl]amino}methylidene)-4-oxo-3-(phenylmethyl)-1,3-thiazolidin-2-ylidene]amino} benzonitrile], at farnesoid X receptor, the Emax is 40 to 50%, the IC50 was 300 to 500 nM and the EC50 was about 1000 nM.

For `CCNc1ccc(C(C)=O)cc1/N=C1\S/C(=C\N(C)c2cccc(OC)c2)C(=O)N1Cc1ccccc1` [No. 15, (2Z,5Z)-2-{[5-acetyl-2-(ethylamino)phenyl]imino}-5-({methyl[3-(methyloxy)phenyl]amino}methylidene)-3-(phenylmethyl)-1,3-thiazolidin-4-one], the EC50 in assay [1] (read-out: agonist activity) was under 200 nM. The compound further came in with an Emax in assay [1] of at least 100%.

Consider `CCNc1ccc(C(C)=O)cc1/N=C1\S/C(=C\N(C)CCc2ccccc2)C(=O)N1Cc1ccccc1` [No. 19, (2Z,5Z)-2-{[5-acetyl-2-(ethylamino)phenyl]imino}-5-{[methyl(2-phenylethyl)amino]methylidene}-3-(phenylmethyl)-1,3-thiazolidin-4-one], for which the EC50 in assay [1] (setting [2]) is at most 1000 nM. Besides, the Emax in assay [1] fell in the range of 50 to 100%.

Consider `CCNc1ccc(C(C)=O)cc1/N=C1\S/C(=C\c2ccccc2)C(=O)N1Cc1ccccc1` [No. 23], for which the EC50 in assay [1] (setting [2]) was at most 1000 nM. For the same compound, the Emax in assay [1] lay within 50 to 100%.

As for `CCNc1ccc(C(C)=O)cc1/N=C1\S/C(=C\c2ccco2)C(=O)N1Cc1ccccc1` [No. 24, (2Z,5Z)-2-{[5-acetyl-2-(ethylamino)phenyl]imino}-5-(furan-2-ylmethylidene)-3-(phenylmethyl)-1,3-thiazolidin-4-one], the EC50 in assay [1] (setting [2]) was at most 1000 nM. The Emax in assay [1] fell in the range of 50 to 100%.
